Values joined by “and” are separate entries in the source; they are usually repeats but may differ in a detail not shown here. Identical values can stand only once.
Columns and labels:
A549 cells = test: Cell uptake / intracellular concentration by LC-MS/MS, A549; format: in vitro ADME, human; conditions: A549, 24 h incubation with 10 μM
Experimental: Therefore, in order to better comprehend the observed activities of our degraders, following incubation of each compound with cells, the intracellular concentrations of the synthesized derivatives were evaluated in different cancer cell lines, as described previously.[28],[29] SKBR3, PC3, or A549 cells were incubated with PROTACs (at a 10 μΜ concentration) for selected time points, respectively. Upon sample treatment, compounds were extracted and analyzed by LC-MS/MS. Table 1 presents the percentage of the molecule that enters the cells after 24 h incubation at the 10 μM concentration. […] The small molecule MYCi361, used as a binding domain component of MYC, was also evaluated in the cell uptake assay (Table 1).
Cells were plated in 24-well plates at a density of 2 × 10^5 cells/well. 24 h after seeding, cells were incubated with each PROTAC (10 μΜ) for certain time points (1 h, 4 h, 8 h, and 24 h). […] Samples were then reconstituted in 200 μL of initial mobile phase (100% A), and the intracellular accumulation of PROTACs was determined by LC-MS/MS analysis using Warfarin as a stable internal standard and PROTAC standards for the construction of analytical standard curves.
The percentage of cell uptake was calculated as follows: [drawing 1]

[1] = Stability of PROTACs in cell medium (DMEM), LC-MS/MS; format: physicochemical; conditions: 72 h at 37 °C, 5 μM in DMEM (10% FBS)
Experimental: The stability of selected molecules, such as CSI86, was studied in cell medium over a time frame of 72 h at 37 °C.
The stability of most compounds, including CSI86 PROTAC, was evaluated in DMEM. The drug was prepared at a concentration of 5 μM in DMEM (10% FBS, 1% pen/strep) and aliquoted at approximately 200 μL per Eppendorf. The samples were collected at appropriate time points (0, 1 h, 2 h, 4 h, 8 h, 24 h, 48 h, and 72 h) and stored at −80 °C. On the day of the LC-MS/MS analysis, samples were prepared (50 μL drug in DMEM + 50 μL ACN:H2O + 50 μL IS + 100 μL cold ACN), vortexed, sonicated, and centrifuged at 13 000 rpm for 15 min. Then, samples were transferred into glass tubes, diluted in the initial mobile phase (20% Α – 80% Β), centrifuged for 1 min, and added to a 96-well plate for the LC-MS/MS analysis.

**Q.** Which results are given for `Cc1ncsc1-c1ccc(CNC(=O)[C@@H]2C[C@@H](O)CN2C(=O)[C@@H](NC(=O)CCC(=O)NCCCOc2ccc(-c3cc(C(F)(F)F)nn3C)c(O)c2-c2cc(C(F)(F)F)cc(C(F)(F)F)c2)C(C)(C)C)cc1` [CSI86]?
**A.** Uptake by cells (A549 cells): 10% and 10 ± 2%; stability in cell medium (DMEM) [1]: stable

Reference: PMC11650737, “Developing MYC Degraders Bearing the Von Hippel–Lindau Ligand to Target the “Undruggable” MYC” (ACS Pharmacology & Translational Science, 2024)
